This is an account of results in ChEMBL document CHEMBL1201862, “PubChem BioAssay data set” (2004).

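Assay format: 96-well plates, 48-hour exposure. GI50 marks 50% less growth.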 Active and inactive are the calls of the source. No stated cut-off is given here; in the data, active = GI50 up to about 1.1 µM and inactive = higher.

Test systems include ACHN; EKVX; HCT-116; HOP-92; K562; LOX IMVI; MCF7; MDA-N; NCI-H460; NCI/ADR-RES; OVCAR-3; OVCAR-4; OVCAR-8; PC-3; RPMI-8226; SF-539; SK-MEL-28; SK-MEL-5; TK-10; UACC-257.
Common to all, as to assay: NCI tumour cell line growth inhibition, 48 h

For the molecule `COc1ccc(OC)c(NC2=NCCO2)c1`, the GI50 was > 100 µM (inactive) with ACHN; > 100 µM (inactive) in the test with EKVX; > 100 µM (inactive) in the test with HCT-116; < 0.01 µM (active) in the test with HOP-92; > 100 µM (inactive) with K562; > 100 µM (inactive) in the test with LOX IMVI. Also, the GI50 with MCF7 was > 100 µM (inactive); with MDA-N it was 45.4 µM (inactive); in the test on NCI-H460, > 100 µM (inactive); in the test with NCI/ADR-RES, > 100 µM (inactive); in the test with OVCAR-3, > 100 µM (inactive); in the test with OVCAR-4 it was > 100 µM (inactive). For the same molecule, the GI50 in the test on OVCAR-8, in the test on PC-3, with RPMI-8226, in the test with SF-539, with SK-MEL-28 and in the test on SK-MEL-5 was > 100 µM (inactive) throughout. The GI50 in the test with TK-10 and with UACC-257 was > 100 µM (inactive) each time.

As to `O=C(CCN1CCCCC1)Nc1ccc2sc3ccccc3c(=O)c2n1`, the GI50 was 10.2 µM (inactive) in the test with ACHN; 20.2 µM (inactive) in the test on EKVX; 6.46 µM (inactive) with HCT-116; 0.411 µM (active) in the test on HOP-92; 6.38 µM (inactive) in the test with K562; 10.3 µM (inactive) in the test with LOX IMVI. Besides, the GI50 with MCF7 is 15.9 µM (inactive); in the test with MDA-N it was 14.3 µM (inactive); in the test on NCI-H460 it was 13.7 µM (inactive); in the test on NCI/ADR-RES, 7.67 µM (inactive); in the test with OVCAR-3, 15.8 µM (inactive); in the test with OVCAR-4 it was 16 µM (inactive). Moreover, the GI50 is > 10 µM (inactive) in the test with OVCAR-8; 11.9 µM (inactive) in the test with PC-3; 6.04 µM (inactive) with RPMI-8226; 15.3 µM (inactive) in the test with SF-539; 16.7 µM (inactive) with SK-MEL-28; 21.6 µM (inactive) with SK-MEL-5. For the same molecule, the GI50 in the test on TK-10 was 15.7 µM (inactive); in the test with UACC-257 it was 19.7 µM (inactive).

Turning to `CC1CCCC(CC(=O)O)(CC(=O)O)C1` (stereo not drawn), the GI50 with ACHN, in the test on EKVX, in the test on HCT-116, in the test with HOP-92, with K562 and in the test on LOX IMVI was > 100 µM (inactive) each time. The GI50 with MCF7, in the test with MDA-N, in the test with NCI-H460, in the test on NCI/ADR-RES, in the test on OVCAR-4 and in the test on OVCAR-8 was > 100 µM (inactive) each time. The GI50 in the test with PC-3 is > 100 µM (inactive); in the test with RPMI-8226, > 100 µM (inactive); with SF-539, > 100 µM (inactive); in the test on SK-MEL-28 it was 7.55 µM (inactive); in the test on SK-MEL-5, > 100 µM (inactive); in the test on TK-10, > 100 µM (inactive). Besides, the GI50 in the test on UACC-257 is > 100 µM (inactive).

With `COc1ccc(/C=C2\CCS(=O)(=O)c3ccccc3C2=O)cc1`, the GI50 is 24.4 µM (inactive) in the test with ACHN; 19.1 µM (inactive) in the test with EKVX; 17.1 µM (inactive) in the test on HCT-116; 36 µM (inactive) in the test on HOP-92; 30.1 µM (inactive) in the test on K562; 20.4 µM (inactive) in the test with LOX IMVI. In addition, the GI50 in the test on MCF7 was 35.4 µM (inactive); with MDA-N, 31.4 µM (inactive); in the test on NCI-H460, 21.7 µM (inactive); with NCI/ADR-RES it was 20.1 µM (inactive); in the test on OVCAR-3, 30 µM (inactive); with OVCAR-4, 24.5 µM (inactive). For the same molecule, the GI50 is 22.2 µM (inactive) in the test on OVCAR-8; 27.5 µM (inactive) with PC-3; 19.3 µM (inactive) with RPMI-8226; 21.1 µM (inactive) in the test with SF-539; 26.9 µM (inactive) with SK-MEL-28; 23.2 µM (inactive) in the test on TK-10. In addition, the GI50 in the test on UACC-257 is 23.3 µM (inactive).
